For 30 molecules, CS/CS113, SP and BP results are on record in patent publication US7736537B1, “Replacement solvents having improved properties for refrigeration flushes” (Mainstream Engineering Corp., priority 2008, dated 2010).

Molecules are shown by their SMILES. Read-outs that look alike come from different tables or passages of the source.

On data set [1], the source says: Parameters such as the lethal dose 50 (LD50), lethal concentration 50 (LC50), cardiac sensitization, skin irritation, and mutagenicity (e.g., via the Ames test) can be used as toxicity metrics. The LDn or LCn abbreviations, where n is the percent lethality, are used for the dose of a toxicant lethal to n % of a test population. […] Cardiac sensitization is a measure of the ability of a compound to cause cardiac arrhythmia under stress.
The property modification components are chosen from a list of potential replacement solvents. These compounds included halogenated compounds such as halogenated acetates, alcohols, alkanes, cycloalkanes, alkenes, cycloalkenes, amines, anhydrides, aromatics, carbonyls, diones, esters, ethers, heterocyclics and ketones.

For data set [2] the following is noted: solubility parameter, Table 1; cited from earlier work.
For data set [3] the following is noted: Table 1; cited from earlier work.
The mark [4] stands for this setting: cardiac sensitization relative to CFC-113.

In data set [1], `O=C(OC(=O)C(F)(F)F)C(F)(F)F` [trifluoroacetic anhydride] showed a CS/CS113 of 236.9. Also, the SP in data set [2] was 7.29 (cal/cm^3)^1/2. Moreover, the BP in data set [3] is 40.2 C.

As for `COC(=O)C(F)(F)C(F)(F)F` [methyl pentafluoropropanoate], in data set [1] (setting [4]), the CS/CS113 was determined as 27.0. Besides, the SP in data set [2] is recorded as 7.77 (cal/cm^3)^1/2. In addition, the BP in data set [3] was 59.5 C.

In turn, `O=C(CC(=O)C(F)(F)F)C(F)(F)F` [1,1,1,5,5,5-hexafluoro-2,4-pentanedione] came in with a CS/CS113 in data set [1] of 140.5. Also, in data set [2], the SP is recorded as 6.90 (cal/cm^3)^1/2. The BP in data set [3] was 69.9 C.

For the molecule `OC(C(F)(F)F)(C(F)(F)F)C(F)(F)F` [1,1,1,3,3,3-hexafluoro-2-(trifluoromethyl)-2-propanol], the CS/CS113 in data set [1] (setting [4]) came to 61.2. For the same molecule, the SP in data set [2] is given as 6.84 (cal/cm^3)^1/2. Moreover, the BP in data set [3] was 46.0 C.

On to `FC(F)(F)COCC(F)(F)F` [bis(2,2,2-trifluoroethyl)ether], for which the CS/CS113 in data set [1] (setting [4]) worked out at 109.2. In addition, the SP in data set [2] is recorded as 7.32 (cal/cm^3)^1/2. Further, the BP in data set [3] was 62.5 C.

As to `FCOC(C(F)(F)F)C(F)(F)F` [fluoromethyl 2,2,2-trifluoro-1-(trifluoromethyl)ethyl ether, reference compound], the CS/CS113 in data set [1] (setting [4]) came to 103.0. Also, the SP in data set [2] was 7.10 (cal/cm^3)^1/2. In data set [3], the BP is reported as 59.0 C.

With `FC(F)(F)/C=C/OC(F)(F)Br` [(E)-1-(bromodifluoromethoxy)-2-(trifluoromethyl)ethene], in data set [1] (setting [4]), the CS/CS113 worked out at 54.3. Moreover, the SP in data set [2] is listed as 7.73 (cal/cm^3)^1/2. Also, the BP in data set [3] was 57.8 C.

For `FC(F)=C(F)C(F)(F)C(F)(F)Br` [4-bromo-1,1,2,3,3,4,4-heptafluorobutene], the CS/CS113 in data set [1] (setting [4]) turned out to be 23.4. The SP in data set [2] is given as 6.78 (cal/cm^3)^1/2. The BP in data set [3] is on record as 51.5 C.

With `FC(F)(F)/C=C\OC(F)(F)Br` [(Z)-1-(bromodifluoromethoxy)-2-(trifluoromethyl)ethene], the CS/CS113 in data set [1] (setting [4]) turned out to be 54.3. Moreover, the SP in data set [2] is recorded as 7.63 (cal/cm^3)^1/2. Also, the BP in data set [3] is reported as 57.8 C.

Turning to `C=C(C(F)(F)F)C(F)(F)Br` [3-bromo-3,3-difluoro-2-(trifluoromethyl)-propene], in data set [1] (setting [4]), the CS/CS113 was 15.0. In data set [2], the SP is 7.24 (cal/cm^3)^1/2. The BP in data set [3] is 49.7 C.

As to `FC(F)(F)C(F)(F)C(F)(F)C(F)(F)/C=C\C(F)(F)C(F)(F)C(F)(F)C(F)(F)F` [1,2-(Z)-bis(perfluoro-n-butyl)ethylene], in data set [1] (setting [4]), the CS/CS113 amounted to 1188.5. Moreover, the SP in data set [2] is recorded as 6.81 (cal/cm^3)^1/2. The BP in data set [3] is recorded as 132.0 C.

On to `C=C(OC(F)(F)Br)C(F)(F)F` [1-(bromodifluoromethoxy)-1-(trifluoromethyl)ethene], for which, in data set [1] (setting [4]), the CS/CS113 amounted to 27.7. Also, the SP in data set [2] was 7.67 (cal/cm^3)^1/2. Also, the BP in data set [3] is reported as 66.3 C.

For `O=C(CC(F)(F)F)C(F)(F)Br` [1,1,4,4,4-pentafluoro-1-bromo-2-butanone], in data set [1] (setting [4]), the CS/CS113 is 17.1. Further, the SP in data set [2] was 7.89 (cal/cm^3)^1/2. In addition, the BP in data set [3] is 89.0 C.

With `FC(F)=C(F)C(F)(Br)C(F)(F)F` (stereo not drawn) [3-bromo-1,1,2,3,4,4,4-heptafluorobutene], the CS/CS113 in data set [1] (setting [4]) was determined as 21.9. Besides, in data set [2], the SP is on record as 6.75 (cal/cm^3)^1/2. Also, in data set [3], the BP is 47.5 C.

As for `FC(F)(F)COCC(F)(F)Br` [(2,2,2-trifluoroethyl)(2-bromo-2,2-difluoroethyl)ether], the CS/CS113 in data set [1] (setting [4]) was 52.1. The SP in data set [2] was 7.64 (cal/cm^3)^1/2. In addition, the BP in data set [3] was 73.0 C.

Regarding `Fc1c(F)c(Br)c(F)c(C(F)(F)F)c1F` [3-bromoheptafluorotoluene], in data set [1] (setting [4]), the CS/CS113 worked out at 21.1. In addition, the SP in data set [2] was 7.66 (cal/cm^3)^1/2. For the same molecule, the BP in data set [3] was 153.0 C.

With `C=C(F)C(F)(Br)C(F)(F)F` (stereo not drawn) [3-bromo-2,3,4,4,4-pentafluorobutene], the CS/CS113 in data set [1] (setting [4]) is given as 4.9. Further, in data set [2], the SP is given as 7.20 (cal/cm^3)^1/2. The BP in data set [3] is recorded as 69.7 C.

Consider `FC(F)(Br)C=C(C(F)(F)F)C(F)(F)F` [1,1,1,4,4-pentafluoro-4-bromo-2-trifluoromethyl-2-butene], for which the CS/CS113 in data set [1] (setting [4]) is recorded as 105.5. Further, the SP in data set [2] is recorded as 6.77 (cal/cm^3)^1/2. Besides, the BP in data set [3] was 61.0 C.

Take `FC=CC(F)(F)Br` [3-bromo-1,3,3-trifluoropropene]: the CS/CS113 in data set [1] (setting [4]) is given as 12.9. In addition, the SP in data set [2] is listed as 7.73 (cal/cm^3)^1/2. Moreover, the BP in data set [3] is 41.5 C.

For `C=CC(F)(F)Br` [3-bromo-3,3-difluoro-1-propene], the CS/CS113 in data set [1] (setting [4]) is 5.9. In addition, in data set [2], the SP was 7.89 (cal/cm^3)^1/2. For the same molecule, the BP in data set [3] is 42.0 C.

For `C=C(F)C(F)(F)Br` [3-bromo-2,3,3-trifluoropropene], the CS/CS113 in data set [1] (setting [4]) is 6.1. Besides, the SP in data set [2] is 7.66 (cal/cm^3)^1/2. The BP in data set [3] is recorded as 41.6 C.

Take `C=C(Br)C(F)(F)C(F)(F)F` [2-bromo-3,3,4,4,4-pentafluorobutene]: the CS/CS113 in data set [1] (setting [4]) is listed as 10.5. In addition, in data set [2], the SP is recorded as 7.19 (cal/cm^3)^1/2. Also, the BP in data set [3] is recorded as 66.1 C.

For `C=C(F)C(F)(F)C(F)(F)Br` [4-bromo-2,3,3,4,4-pentafluorobutene], the CS/CS113 in data set [1] (setting [4]) stood at 6.0. The SP in data set [2] is recorded as 7.21 (cal/cm^3)^1/2. In addition, the BP in data set [3] is 69.2 C.

Consider `F/C(=C(/F)C(F)(F)Br)C(F)(F)F` [(E)-1-bromo-perfluoro-2-butene], for which, in data set [1] (setting [4]), the CS/CS113 is 41.4. In data set [2], the SP was 6.85 (cal/cm^3)^1/2. Further, the BP in data set [3] is 48.0 C.

For the molecule `FC(OC(F)(F)C(F)(F)C(F)(F)F)C(F)(F)F` (stereo not drawn) [heptafluoropropyl 1,2,2,2-tetrafluoroethyl ether], the CS/CS113 in data set [1] (setting [4]) came to 195.7. For the same molecule, in data set [2], the SP was 6.62 (cal/cm^3)^1/2. Moreover, in data set [3], the BP is on record as 41.0 C.

In the case of `FC(F)(Br)C=C(C(F)(F)F)C(F)(F)F` [4-bromo-1,1,1,4,4-pentafluoro-2-(trifluoromethyl)-2-butene], in data set [1] (setting [4]), the CS/CS113 came to 105.5. In addition, the SP in data set [2] is 6.74 (cal/cm^3)^1/2. The BP in data set [3] is 61.0 C.

For `FC(Br)=C(C(F)(F)F)C(F)(F)F` [1-bromo-1,3,3,3-tetrafluoro-2-(trifluoromethyl)-1-propene], the CS/CS113 in data set [1] (setting [4]) came to 71.9. Further, the SP in data set [2] is 6.78 (cal/cm^3)^1/2. The BP in data set [3] is on record as 51.9 C.

For the molecule `F/C(OC(F)(F)Br)=C(/F)C(F)(F)F` [(E)-1-(bromodifluoromethoxy)-1,2,3,3,3-pentafluoro-1-propene], the CS/CS113 in data set [1] (setting [4]) is given as 70.1. For the same molecule, the SP in data set [2] is given as 7.25 (cal/cm^3)^1/2. The BP in data set [3] is recorded as 65.2 C.

`FC(OC(F)(F)Br)=C(C(F)(F)F)C(F)(F)F` [1-(bromodifluoromethoxy)-2-(trifluoromethyl)-1,3,3,3-tetrafluoro-1-propene]: in data set [1] (setting [4]), the CS/CS113 was found to be 187.0. Also, in data set [2], the SP is given as 7.06 (cal/cm^3)^1/2. Moreover, the BP in data set [3] is given as 78.6 C.

With `Fc1c(F)c(F)c(C(F)(F)F)c(Br)c1F` [2-bromoheptafluorotoluene], the CS/CS113 in data set [1] (setting [4]) was found to be 21.5. In addition, the SP in data set [2] is listed as 7.64 (cal/cm^3)^1/2. For the same molecule, the BP in data set [3] is 151.3 C.
